Reference: patent publication US8993260B2, “Fluorescence-based viability staining method using a membrane permeable flourescent dye and membrane impermeable fluorescence quencher” (Charles River Laboratories, Inc., priority 2012, dated 2015)

Experiments:
[1] = test system: viable and non-viable E. coli; assay: Viability staining of mixed viable/non-viable E. coli in solution: fluorescent probe and two PET quenchers; format: cell-based; conditions: 0.005 mM Oxazine 170 perchlorate, 0.4 mM p-Sulfonic calix[6]arene, 100 mM sodium ascorbate in PBS; about 5 min
Protocol: The viable and heat killed E. coli were preparations were prepared as described in Example 1. The heat killed E. coli suspension was then combined with the viable cell suspension and mixed by vortexing. The resulting cell suspension served as the viable and non-viable E. coli solution. A fluorescent probe-quencher stain was prepared as a solution consisting of 0.005 mM Oxazine 170 perchlorate (Sigma-Aldrich, St. Louis, Mo.), 0.4 mM p-Sulfonic calix[6]arene (TCI America, Portland, Oreg.), 100 mM Sodium ascorbate (Sigma-Aldrich, St. Louis, Mo.) in PBS. The viable and non-viable E. coli suspension was then diluted 1:1000 into the fluorescent probe-quencher solution to stain the cells. After incubation for approximately 5 minutes, a droplet of the stained cell solution was placed onto a microscope slide and imaged on a fluorescent microscope (Carl Zeiss, LLC, Thornwood, N.Y.). FIGS. 20A and 20B show a combined image of the viable and non-viable stained E. coli captured under phase contrast (FIG. 20A) as well as fluorescent conditions (excitation 575-625 nm, emission 660-710 nm) (FIG. 20B). The viable and non-viable cells were indistinguishable in phase contrast but under fluorescent conditions the viable cells were brightly fluorescent whereas the non viable cells were not.

[2] = test system: viable and heat killed E. coli; assay: Viability staining of E. coli captured on a membrane: fluorescent probe and quencher wash, fluorescence microscopy; format: cell-based; conditions: 0.005 mM Oxazine 170 perchlorate stain, then 10 mM sodium ascorbate wash
Protocol: Viable and non-viable E. coli cell fractions were prepared by picking a colony cultured on a conventional media plate and then transferring the cells into Phosphate Buffered Saline (PBS). The cells then were suspended by vortexing and then were further diluted in PBS to give a turbidity equivalent to a 1.0 McFarland standard. This stock solution served as the live cell fraction. An aliquot of the live cell fraction was transferred to a glass tube that was placed into a boiling water bath for about 15 minutes to heat kill the E. coli. The tube was removed from the bath and allowed to cool to room temperature. This heat killed suspension served as the dead cell fraction. A fluorescent stain solution was prepared as a 0.005 mM solution of Oxazine 170 perchlorate (Sigma-Aldrich, St. Louis, Mo.) in PBS containing a 1:100,000 dilution of 10% w/v 0.8 μm Sky Blue latex fluorescent particles (Spherotech, Lake Forest, Ill.). A separate quencher wash solution was prepared as a 10 mM Sodium ascorbate (Sigma-Aldrich, St. Louis, Mo.) solution in PBS. […] The cells then were imaged using a fluorescent microscope (Carl Zeiss, LLC—Thornwood, N.Y.) with an excitation of 575 nm-625 nm and measured emission of 660 nm-710 nm. […]

Row | SMILES | Permeation of the quencher through non-viable cell membranes and quenching of fluorescence [1] | Permeation of the quencher into heat killed cells (quenching of fluorescent signal) ([2]; heat killed E. coli on 0.2 μm membrane) | Permeation of the quencher into viable cells ([2]; live E. coli on 0.2 μm membrane, ex 575-625 nm, em 660-710 nm)
1 | O=S(=O)(O)c1cc2c(O)c(c1)Cc1cc(S(=O)(=O)O)cc(c1O)Cc1cc(S(=O)(=O)O)cc(c1O)Cc1cc(S(=O)(=O)O)cc(c1O)Cc1cc(S(=O)(=O)O)cc(c1O)Cc1cc(S(=O)(=O)O)cc(c1O)C2 [p-Sulfonic calix[6]arene, 4- Sulfocalix [6]arene] | permeated the non-viable cell membranes resulting in an effective quenching of fluorescence |  | 
2 | O=C1O[C@H]([C@@H](O)CO)C([O-])=C1O.[Na+] [sodium ascorbate, Sodium Ascorbate] | permeated the non-viable cell membranes resulting in an effective quenching of fluorescence | permeated | excluded from the viable cells
